For test [1], the system named is Ovariectomized (OVX) Rats. As to the kind of experiment: Action of increasing bone mass in ovariectomized (OVX) rats, 8 weeks. To be noted: for Bone mineral density: OVX female SD rats, right femur, s.c. once daily, 5 days weekly, 8 weeks from 4 weeks postoperatively, DHT 10 mg/kg, Ex. 23 30 mg/kg, Mean ± SD. The test is classed as in vivo, rat. Here is the method:
Action of Increasing Bone Mass in Ovariectomized (OVX) Rats
Ovariectomy was performed in 12-week-old female SD rats. […] In an OVX control group (Vehicle), dimethyl sulfoxide diluted with olive oil was used for the test. […] On the next day after final administration, the right femur was removed, and fixed overnight in a 10% neutrally buffered formalin solution.

Test [2] deals with Orchiectomized (ORX) Rats. Description: Action of increasing prostate weight in orchiectomized (ORX) rats, 8 days. The test is classed as in vivo, rat. To be noted: for Weight of prostate: ORX SD rats, s.c. once daily for 8 days, DHT 10 mg/kg, Ex. 23 30 mg/kg, ventral prostate wet weight, Mean ± SD. Here is the method: Testes were removed from 8-week-old male SD rats. […] In an ORX control group (Vehicle), dimethyl sulfoxide diluted with olive oil was used for the test. […] On the next day after final administration, the wet weight of the ventral prostate was measured to evaluate the AR agonistic effect of the compound of the present invention.

The test system of test [3] is Orchiectomized (ORX) Rats. As to the kind of experiment: Action of increasing prostate weight and bone mass in orchiectomized (ORX) rats, 4 weeks. The test is classed as in vivo, rat. To be noted: for Bone mineral density / Prostate weight: ORX SD rats, s.c. once daily, 5 days weekly, 4 weeks, DHT 10 mg/kg, Ex. 23 30 mg/kg, Mean ± SD; for Bone mineral density: right femur. The procedure: Orchiectomy was performed in 12-week-old male SD rats. […] In an ORX control group (Vehicle), dimethyl sulfoxide diluted with olive oil was used for the test. […] On the next day after final administration, the wet weight of the ventral prostate was measured to evaluate the AR agonistic effect of the compound of the present invention. On the next day following final administration, moreover, the right femur was removed, and fixed overnight in a 10% neutrally buffered formalin solution.

In test [4] the target is T1, Rat Androgen Receptors (Rat AR) (Rattus norvegicus, UniProt P15207).
T1 construct: from tissue; host or cells: prostate of orchiectomized 11-week-old male SD rats (100,000 x g supernatant of the homogenate)
T1 sequence (P15207 1-902): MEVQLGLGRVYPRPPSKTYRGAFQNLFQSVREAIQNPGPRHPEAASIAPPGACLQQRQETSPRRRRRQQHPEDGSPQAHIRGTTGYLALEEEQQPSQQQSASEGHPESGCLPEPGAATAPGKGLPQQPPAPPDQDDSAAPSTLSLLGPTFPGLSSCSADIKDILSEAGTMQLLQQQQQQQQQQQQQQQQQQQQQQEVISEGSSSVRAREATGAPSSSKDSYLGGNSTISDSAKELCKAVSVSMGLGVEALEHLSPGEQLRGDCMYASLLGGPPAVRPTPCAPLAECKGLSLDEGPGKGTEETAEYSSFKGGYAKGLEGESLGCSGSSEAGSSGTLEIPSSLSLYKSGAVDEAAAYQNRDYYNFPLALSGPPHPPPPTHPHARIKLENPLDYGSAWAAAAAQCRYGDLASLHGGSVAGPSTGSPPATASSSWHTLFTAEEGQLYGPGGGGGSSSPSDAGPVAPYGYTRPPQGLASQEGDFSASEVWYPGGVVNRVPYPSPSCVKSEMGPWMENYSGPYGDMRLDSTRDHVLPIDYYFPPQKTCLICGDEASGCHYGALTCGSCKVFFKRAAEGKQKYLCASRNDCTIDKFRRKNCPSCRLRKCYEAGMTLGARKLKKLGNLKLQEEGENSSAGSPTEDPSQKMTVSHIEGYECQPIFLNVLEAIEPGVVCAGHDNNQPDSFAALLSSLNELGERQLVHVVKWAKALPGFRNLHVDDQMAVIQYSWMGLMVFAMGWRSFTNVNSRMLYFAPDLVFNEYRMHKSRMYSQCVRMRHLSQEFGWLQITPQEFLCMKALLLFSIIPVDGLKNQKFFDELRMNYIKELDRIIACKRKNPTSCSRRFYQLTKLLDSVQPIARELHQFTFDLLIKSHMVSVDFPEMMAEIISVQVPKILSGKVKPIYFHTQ
As to the kind of experiment: Test for competitive binding to rat androgen receptors (3H-testosterone displacement, prostate AR fraction). To be noted: RBA=100×(IC50 of hydroxyflutamide)/(IC50 of the compound). The procedure: Test for Competitive Binding to Rat Androgen Receptors (Rat AR)
Preparation of rat AR fraction: Prostates were harvested into ice-cooled ET buffer (10 mM Tris, 1 mM EDTA, 5 mM DTT, 10 mM sodium molybdate, pH 7.4) 3 days after orchiectomy in 11-week-old male SD rats. The prostate was finely cut, and ET buffer was added, whereafter the mixture was homogenized using a homogenizer. The homogenate was ultracentrifuged (100,000×g, 60 min, 4° C.), and the supernatant was used as a rat AR fraction (hereinafter referred to as ARF).
Binding test: ^3H-testosterone (hereinafter referred to as ^3H-T) was diluted with ET buffer. Dihydrotestosterone (DHT) was prepared so as to have a concentration (final concentration 1 μM) 400 times the maximum concentration of ^3H-T (2.5 nM). The ^3H-T solution was added to a 1.5 ml tube containing DHT, no DHT, or the test compound with a varying concentration. Further, 200 μg ARF was added to adjust the final volume to 100 μl. The mixture was incubated for 2 hours at 4° C., and then 300 μl of a 0.05% dextran T70-1.0% activated carbon solution was added. The mixture was further incubated for 15 minutes in ice to remove the free ^3H-T. After centrifugation (4° C., 2,500 rpm, 5 min), 275 μl of the supernatant was harvested into a liquid scintillation vial, and 2 ml of clear-sol was added. The mixture was stirred, allowed to stand, and measured for ^3H radioactivity with a liquid scintillation counter. […]
a: Radioactivity of the sample incorporating the compound of the present invention (^3H-T+compound) b: Radioactivity of the sample free from the compound of the present invention (only ^3H-T: amount of total binding) c: Radioactivity of the sample incorporating DHT (^3H-T+DHT: amount of nonspecific binding) The relative binding inhibition rate (RBA: Relative Binding Affinity) was obtained from the following equation (Endocrinology 138, 863-870, 1997): […]

A further test relates to male rats. Description: AR antagonistic effect: inhibition of testosterone propionate-induced prostate weight increase. Format: in vivo, rat. The note with it: suggested by a Test Example; no data given. Here is the method:
Testes were removed from male rats. From 5 days postoperatively, testosterone propionate and the compound of the present invention were simultaneously administered once daily for one consecutive week by the subcutaneous route. On the next day after final administration, the wet weight of the ventral prostate was measured to evaluate the AR antagonistic effect of the compound of the present invention based on its inhibitory action on testosterone propionate-induced prostate weight increase.

Structures are written as SMILES.

Consider `C[C@]12CCC(=O)C[C@@H]1CC[C@@H]1[C@@H]2CC[C@]2(C)[C@@H](O)CC[C@@H]12` [DHT, dihydrotestosterone, reference compound], for which the Bone mineral density in test [1] is 120.8 ± 4.4 mg/cm^2; in test [3], 130 ± 7 mg/cm^2. For the same compound, the Weight of prostate in test [2] is on record as 68 ± 16 mg/body weight (100 g). The compound also yielded a Prostate weight in test [3] of 150 ± 14 mg/body weight 100 g.

As for `CC(=O)OCC(C)(C)C1CC(N(C)C)c2cc([N+](=O)[O-])ccc2N1` (centres unmarked) [Example 9, Acetic acid 2-(4-dimethylamino-6-nitro-1,2,3,4-tetrahydroquinolin-2-yl)-2-methyl-propyl ester], in test [4], the “RBA (Relative Binding Affinity)” value stood at 79.

Turning to `CN(C)C1CC(C(C)(C)COC(=O)c2ccc(F)cc2)Nc2ccc([N+](=O)[O-])cc21` (centres unmarked) [Example 11, 4-Fluorobenzoic acid 2-(4-dimethylamino-6-nitro-1,2,3,4-tetrahydroquinolin-2-yl)-2-methyl-propyl ester], in test [4], the “RBA (Relative Binding Affinity)” value came to 98.

In the case of `CN(C)C1CC(C(C)(C)CO)Nc2ccc([N+](=O)[O-])cc21` (centres unmarked) [Example 23, 2-(4-dimethylamino-6-nitro-1,2,3,4-tetrahydroquinolin-2-yl)-2-methylpropan-1-ol], the results for the Bone mineral density in test [1] and in test [3] were 120.9 ± 3.9 mg/cm^2 and 134 ± 6 mg/cm^2, respectively. Also, the “Effect on bone mineral density (in words)” value was “significantly increased the bone mineral density” in test [1] (OVX rats, administered for 8 weeks, 30 mg/kg s.c.) and “significantly increased the decreased bone mineral density” in test [3] (ORX rats, administered for 4 weeks, 30 mg/kg s.c., vs control group). Also, the Weight of prostate in test [2] is 52 ± 12 mg/body weight (100 g). In addition, the “Effect on prostate weight (in words)” value in test [2] (ORX rats, consecutively administered for 8 days, 30 mg/kg s.c.) is “significantly increased prostate weights in comparison with the ORX control”. Moreover, in test [3], the Prostate weight is 78 ± 10 mg/body weight 100 g. Besides, the “Effect on atrophied prostate (in words)” value in test [3] (ORX rats, administered for 4 weeks, 30 mg/kg s.c.) is listed as “restored the atrophied prostate up to the level of the normal control”.

Regarding `CC(C)(CO)C1CC(NCc2ccccc2)c2cc([N+](=O)[O-])ccc2N1` (centres unmarked) [Example 30, 2-(4-Benzylamino-6-nitro-1,2,3,4-tetrahydroquinolin-2-yl)-2-methylpropan-1-ol], the “RBA (Relative Binding Affinity)” value in test [4] came to 370.

With `CCCN(CCC)C1CC(C(C)(C)CO)Nc2ccc([N+](=O)[O-])cc21` (centres unmarked) [Example 33, 2-(4-Di-n-propylamino-6-nitro-1,2,3,4-tetrahydroquinolin-2-yl)-2-methylpropan-1-ol], the “AR antagonistic effect (in words)” value in the test with male rats is given as “AR antagonist”.

`CC(C)(O)C(=O)Nc1ccc([N+](=O)[O-])c(C(F)(F)F)c1` [Hydroxyflutamide, reference compound]: the “RBA (Relative Binding Affinity)” value in test [4] was determined as 100.

(Values after patent US6777427B2, “Tetrahydroquinoline compounds” (priority 2000, dated 2004).)
